How the values were obtained:
Assay in all cases: viability relative to DMSO control (fraction); higher = less drug effect (more viable cells)
Conditions in all cases: 48 h
[1] = compound: C#CCC(Cc1cnc2nc(N)nc(N)c2n1)c1ccc(C(=O)N[C@@H](CCC(=O)O)C(=O)O)cc1 [Pralatrexate]
How it was run: (§1)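 Compounds were pre-plated at five concentrations, one well each, in 384-well plates, and primary mononuclear tumour cells were plated on them at 4 × 10^4 cells per well. The cells, fresh or cryopreserved, had been Ficoll-isolated from blood or bone marrow or taken from processed lymph node. After 48 h at 37 °C and 5% CO2 in RPMI-1640 with penicillin/streptomycin, L-glutamine and human serum, viability was read as CellTiter-Glo luminescence relative to the median of 16 inner DMSO wells.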

[2] = compound: CC#CC(=O)N1CC[C@@H](n2c(=O)n(-c3ccc(Oc4ccccc4)cc3)c3c(N)ncnc32)C1 [ONO-4059]
How it was run: as §1

[3] = compound: CC(C)(C)OC(=O)Nc1ccc(-c2cc(C(=O)NCCCCCCC(=O)NO)no2)cc1
How it was run: as §1

[4] = compound: CCCS(=O)(=O)Nc1ccc(F)c(C(=O)c2c[nH]c3ncc(-c4ccc(Cl)cc4)cc23)c1F [Vemurafenib]
How it was run: as §1

[5] = compound: CCOc1cc(C(=O)N2CCC(N3CCN(C)CC3)CC2)ccc1Nc1ncc2c(n1)N(C1CCCC1)c1ccccc1C(=O)N2C [ERK5-IN-1]
How it was run: as §1

[6] = compound: CC[C@@H]1C(=O)N(C)c2cnc(Nc3ccc(C(=O)N[C@H]4CC[C@H](N5CCN(CC6CC6)CC5)CC4)cc3OC)nc2N1C(C)C [BI6727]
How it was run: as §1

[7] = compound: CC[C@]1(O)C[C@H]2CN(CCc3c([nH]c4ccccc34)[C@@](C(=O)OC)(c3cc4c(cc3OC)N(C=O)[C@H]3[C@@](O)(C(=O)OC)[C@H](OC(C)=O)[C@]5(CC)C=CCN6CC[C@]43[C@@H]65)C2)C1 [Vincristine]
How it was run: as §1

[8] = compound: CN(C)C(=O)c1cc2cnc(Nc3ccc(N4CCNCC4)cn3)nc2n1C1CCCC1 [Ribociclib]
How it was run: as §1

[9] = compound: COC1=CC(c2cc3ccccc3[nH]2)=N/C1=C\c1[nH]c(C)cc1C [Obatoclax mesylate]
How it was run: as §1

[10] = compound: COc1c(Cl)cc2c([nH]c3cnccc32)c1NC(=O)c1cccnc1C [MLN-120B]
How it was run: as §1

[11] = compound: Cc1[nH]c2ccccc2c1CCNCc1ccc(/C=C/C(=O)NO)cc1 [Panobinostat]
How it was run: as §1

[12] = compound: NC(=O)Nc1cc(-c2cccc(F)c2)sc1C(=O)N[C@H]1CCCNC1 [AZD7762]
How it was run: as §1

[13] = compound: Nc1nc(Cl)nc2c1ncn2[C@H]1C[C@H](O)[C@@H](CO)O1 [Cladribine]
How it was run: as §1

[14] = compound: O=C(CCCCCCC(=O)Nc1ccccc1)NO [Vorinostat]
How it was run: as §1

[15] = compound: O=C(NCC1(c2nc(-c3ccccc3)cs2)CCOCC1)c1cccc(-c2noc(C(F)(F)F)n2)c1 [TMP269]
How it was run: as §1

[16] = compound: OC[C@H]1O[C@@H](n2cnc3c2N=CNC[C@H]3O)C[C@@H]1O [Pentostatin]
How it was run: as §1

[17] = compound: Cc1ccc(NC(=O)c2ccc(CN3CCN(C)CC3)cc2)cc1Nc1nccc(-c2cccnc2)n1 [Imatinib]
How it was run: as §1

primary T-NHL patient cells (S058)
viability ([1]; 0.024 µM): 1.15
viability ([1]; 0.12 µM): 0.861
viability ([1]; 0.6 µM): 0.833
viability ([1]; 3 µM): 0.902
viability ([1]; 15 µM): 0.833
viability ([2]; 0.0016 µM): 1.06
viability ([2]; 0.008 µM): 1.25
viability ([2]; 0.04 µM): 1.03
viability ([2]; 0.2 µM): 1.16
viability ([2]; 1 µM): 1.07
viability ([3]; 0.024 µM): 0.982
viability ([3]; 0.12 µM): 0.854
viability ([3]; 0.6 µM): 0.611
viability ([3]; 3 µM): 0.355
viability ([3]; 15 µM): 0.258
viability ([4]; 0.024 µM): 0.878
viability ([4]; 0.12 µM): 0.957
viability ([4]; 0.6 µM): 0.911
viability ([4]; 3 µM): 0.982
viability ([4]; 15 µM): 0.96
viability ([5]; 0.024 µM): 1.12
viability ([5]; 0.12 µM): 1.15
viability ([5]; 0.6 µM): 0.851
viability ([5]; 3 µM): 0.59
viability ([5]; 15 µM): 0.403
viability ([6]; 0.024 µM): 0.939
viability ([6]; 0.12 µM): 0.885
viability ([6]; 0.6 µM): 0.757
viability ([6]; 3 µM): 0.506
viability ([6]; 15 µM): 0.3
viability ([7]; 0.016 µM): 0.646
viability ([7]; 0.08 µM): 0.417
viability ([7]; 0.4 µM): 0.364
viability ([7]; 2 µM): 0.302
viability ([7]; 10 µM): 0.246
viability ([8]; 0.024 µM): 1.05
viability ([8]; 0.12 µM): 1.14
viability ([8]; 0.6 µM): 1.07
viability ([8]; 3 µM): 1.01
viability ([8]; 15 µM): 1.06
viability ([9]; 0.024 µM): 0.985
viability ([9]; 0.12 µM): 0.916
viability ([9]; 0.6 µM): 0.783
viability ([9]; 3 µM): 0.533
viability ([9]; 15 µM): 0.227
viability ([10]; 0.024 µM): 0.984
viability ([10]; 0.12 µM): 1.15
viability ([10]; 0.6 µM): 1.05
viability ([10]; 3 µM): 1.16
viability ([10]; 15 µM): 0.908
viability ([11]; 0.00064 µM): 1.24
viability ([11]; 0.0032 µM): 0.886
viability ([11]; 0.016 µM): 0.292
viability ([11]; 0.08 µM): 0.302
viability ([11]; 0.4 µM): 0.243
viability ([12]; 0.024 µM): 1.05
viability ([12]; 0.12 µM): 1.16
viability ([12]; 0.6 µM): 0.936
viability ([12]; 3 µM): 1.02
viability ([12]; 15 µM): 0.719
viability ([13]; 0.024 µM): 0.857
viability ([13]; 0.12 µM): 0.441
viability ([13]; 0.6 µM): 0.147
viability ([13]; 3 µM): 0.112
viability ([13]; 15 µM): 0.0704
viability ([14]; 0.016 µM): 1.16
viability ([14]; 0.08 µM): 0.894
viability ([14]; 0.4 µM): 0.789
viability ([14]; 2 µM): 0.381
viability ([14]; 10 µM): 0.274
viability ([15]; 0.024 µM): 1.05
viability ([15]; 0.12 µM): 0.994
viability ([15]; 0.6 µM): 1.01
viability ([15]; 3 µM): 0.892
viability ([15]; 15 µM): 0.836
viability ([16]; 0.03 µM): 1.1
viability ([16]; 0.15 µM): 1.06
viability ([16]; 0.75 µM): 0.988
viability ([16]; 3.75 µM): 0.816
viability ([16]; 18.76 µM): 0.858

primary AML patient cells (S044)
viability ([17]; 0.08 µM): 1.06
viability ([17]; 0.4 µM): 1
viability ([17]; 2 µM): 0.924
viability ([17]; 10 µM): 0.823

primary AML patient cells (S054)
viability ([17]; 0.016 µM): 1.05
viability ([17]; 0.08 µM): 1.05
viability ([17]; 0.4 µM): 1
viability ([17]; 2 µM): 0.962
viability ([17]; 10 µM): 0.807

primary DLBCL patient cells (S049)
viability ([1]; 0.024 µM): 1.02
viability ([1]; 0.12 µM): 0.803
viability ([1]; 0.6 µM): 0.897
viability ([1]; 3 µM): 0.899
viability ([1]; 15 µM): 0.928
viability ([2]; 0.0016 µM): 0.823
viability ([2]; 0.008 µM): 0.761
viability ([2]; 0.04 µM): 0.687
viability ([2]; 0.2 µM): 0.716
viability ([2]; 1 µM): 0.649
viability ([3]; 0.024 µM): 0.925
viability ([3]; 0.12 µM): 0.678
viability ([3]; 0.6 µM): 0.327
viability ([3]; 3 µM): 0.0379
viability ([3]; 15 µM): 0.0222
viability ([4]; 0.024 µM): 0.847
viability ([4]; 0.12 µM): 0.935
viability ([4]; 0.6 µM): 0.934
viability ([4]; 3 µM): 0.957
viability ([4]; 15 µM): 0.911
viability ([5]; 0.024 µM): 1.04
viability ([5]; 0.12 µM): 1.04
viability ([5]; 0.6 µM): 0.717
viability ([5]; 3 µM): 0.177
viability ([5]; 15 µM): 0.045
viability ([6]; 0.024 µM): 0.902
viability ([6]; 0.12 µM): 0.898
viability ([6]; 0.6 µM): 0.711
viability ([6]; 3 µM): 0.228
viability ([6]; 15 µM): 0.0414
viability ([7]; 0.016 µM): 0.123
viability ([7]; 0.08 µM): 0.101
viability ([7]; 0.4 µM): 0.104
viability ([7]; 2 µM): 0.132
viability ([7]; 10 µM): 0.121
viability ([8]; 0.024 µM): 1
viability ([8]; 0.12 µM): 1.02
viability ([8]; 0.6 µM): 0.976
viability ([8]; 3 µM): 0.752
viability ([8]; 15 µM): 0.29
viability ([9]; 0.024 µM): 0.827
viability ([9]; 0.12 µM): 0.773
viability ([9]; 0.6 µM): 0.538
viability ([9]; 3 µM): 0.343
viability ([9]; 15 µM): 0.0387
viability ([10]; 0.024 µM): 0.954
viability ([10]; 0.12 µM): 0.902
viability ([10]; 0.6 µM): 0.946
viability ([10]; 3 µM): 0.868
viability ([10]; 15 µM): 0.741
viability ([11]; 0.00064 µM): 1.09
viability ([11]; 0.0032 µM): 0.896
viability ([11]; 0.016 µM): 0.0566
viability ([11]; 0.08 µM): 0.0257
viability ([11]; 0.4 µM): 0.0265
viability ([12]; 0.024 µM): 0.697
viability ([12]; 0.12 µM): 0.337
viability ([12]; 0.6 µM): 0.277
viability ([12]; 3 µM): 0.344
viability ([12]; 15 µM): 0.163
viability ([13]; 0.024 µM): 0.918
viability ([13]; 0.12 µM): 0.853
viability ([13]; 0.6 µM): 0.512
viability ([13]; 3 µM): 0.399
viability ([13]; 15 µM): 0.305
viability ([14]; 0.016 µM): 0.996
viability ([14]; 0.08 µM): 0.899
viability ([14]; 0.4 µM): 0.797
viability ([14]; 2 µM): 0.0724
viability ([14]; 10 µM): 0.0247
viability ([15]; 0.024 µM): 1.03
viability ([15]; 0.12 µM): 1.08
viability ([15]; 0.6 µM): 1.1
viability ([15]; 3 µM): 1.01
viability ([15]; 15 µM): 0.961
viability ([16]; 0.03 µM): 1.09
viability ([16]; 0.15 µM): 0.953
viability ([16]; 0.75 µM): 1.02
viability ([16]; 3.75 µM): 0.907
viability ([16]; 18.76 µM): 0.839

— the supplement of paper PMC10733146
